Results reported in patent publication US10131642B1, “Aldosterone synthase inhibitors” (Boehringer Ingelheim International GmbH, priority 2015, dated 2018).

Legend:
[1] = target: cortisol synthase (CYP11B1) (Macaca fascicularis, UniProt A0A2K5ULY1); assay: Inhibition of cortisol synthesis (cynomolgus adrenal mitochondria, cortisol by mass spectrometry); format: biochemical, cynomolgus monkey; details: cynomolgus adrenal gland mitochondria, 11-deoxycortisol as substrate, cortisol measured as product; read-out: CYP11B1 Inhibition IC50
Description: The aldosterone synthase and cortisol synthase inhibition assays employ cynomolgus adrenal gland mitochondria as the source of aldosterone synthase (CYP11B2) and cortisol synthase (CYP11B1). Mitochondria are prepared from frozen cynomolgus monkey adrenal glands according to Method A described in by J. D. McGarry et al. (Biochem. J., 1983, 214, 21-28), with a final resuspension in the AT buffer described in R. Yamaguchi et al. (Cell Death and Differentiation, 2007, 14, 616-624), frozen as aliquots in liquid nitrogen and stored at −80° C. until use. Activity of CYP11B2 and CYP11B1 in these preparations is defined as the amount of enzyme that generates 1 pmol of product in one hour under the conditions described. Dose dependent inhibition is quantified by the inclusion of compound at various concentrations. Maximum activity (100%) is defined by reactions containing NADPH, but without compound. Activities at each concentration are expressed as a percentage of the maximum activity (y-axis) and plotted against concentration of compound (x-axis) and the concentration corresponding to 50% activity (IC50) determined using the XLFit curve-fitting program using a 4-parameter logistic model. Assays are performed as for aldosterone synthase except for the use of 150 units of CYP11B1, 11-deoxycortisol as substrate and cortisol measured as product.

[2] = target: T1, aldosterone synthase (CYP11B2) (Macaca fascicularis, UniProt A0A2K5UPL9); assay: Inhibition of aldosterone synthase (cynomolgus adrenal mitochondria, aldosterone by mass spectrometry); format: biochemical, cynomolgus monkey; details: cynomolgus adrenal gland mitochondria, 2 μM corticosterone substrate, 90 minutes at 37° C.
T1 construct: cynomolgus adrenal gland mitochondria as the source of aldosterone synthase (CYP11B2); from tissue; host or cells: cynomolgus monkey adrenal gland mitochondria
T1 sequence (A0A2K5UPL9 1-503): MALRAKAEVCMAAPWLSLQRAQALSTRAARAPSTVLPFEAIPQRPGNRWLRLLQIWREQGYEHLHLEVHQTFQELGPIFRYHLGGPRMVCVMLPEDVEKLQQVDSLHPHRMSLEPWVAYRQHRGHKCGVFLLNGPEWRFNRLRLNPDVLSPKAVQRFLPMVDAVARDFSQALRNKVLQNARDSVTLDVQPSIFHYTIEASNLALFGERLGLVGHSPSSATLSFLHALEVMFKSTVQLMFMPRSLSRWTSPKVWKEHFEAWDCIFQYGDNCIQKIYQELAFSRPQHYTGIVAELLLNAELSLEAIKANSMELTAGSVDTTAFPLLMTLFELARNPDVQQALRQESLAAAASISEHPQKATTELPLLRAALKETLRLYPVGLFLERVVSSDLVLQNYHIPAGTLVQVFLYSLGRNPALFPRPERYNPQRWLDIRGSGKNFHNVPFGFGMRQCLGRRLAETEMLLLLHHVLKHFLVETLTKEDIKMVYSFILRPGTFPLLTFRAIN
Description: The aldosterone synthase and cortisol synthase inhibition assays employ cynomolgus adrenal gland mitochondria as the source of aldosterone synthase (CYP11B2) and cortisol synthase (CYP11B1). Mitochondria are prepared from frozen cynomolgus monkey adrenal glands according to Method A described in by J. D. McGarry et al. (Biochem. J., 1983, 214, 21-28), with a final resuspension in the AT buffer described in R. Yamaguchi et al. (Cell Death and Differentiation, 2007, 14, 616-624), frozen as aliquots in liquid nitrogen and stored at −80° C. until use. Activity of CYP11B2 and CYP11B1 in these preparations is defined as the amount of enzyme that generates 1 pmol of product in one hour under the conditions described.
Assays are performed in 96-well format in a final volume of 60 µL/well, containing 100 mM potassium phosphate, pH 7.4, 1% (v/v) DMSO, and additionally, 2 μM of corticosterone and 50 units of CYP11B2 activity. Reactions are started by the addition of NADPH to 1 mM and allowed to proceed for 90 minutes at 37° C. Reactions are terminated by the addition of 60 μL of MeCN containing an internal standard for mass spectrometry. One hundred microliters are then transferred to a glass filter plate and centrifuged at 570×g for 5 minutes and the filtrate is collected. Reaction product aldosterone is quantified by mass spectrometry. To determine the assay blank value (0% activity), NADPH is omitted from some reactions.
Dose dependent inhibition is quantified by the inclusion of compound at various concentrations. Maximum activity (100%) is defined by reactions containing NADPH, but without compound. Activities at each concentration are expressed as a percentage of the maximum activity (y-axis) and plotted against concentration of compound (x-axis) and the concentration corresponding to 50% activity (IC50) determined using the XLFit curve-fitting program using a 4-parameter logistic model.

Structure (SMILES)	IC50 [1] [nM]	IC50 [2] [nM]
CC1(C)CC(=O)c2c(noc2Cc2ccc(C(=O)N3CCC[C@H](O)C3)cc2)C1 [Cpd 60, 3-[4-((S)-3-Hydroxy-piperidine-1-carbonyl)-benzyl]-6,6-dimethyl-6,7-dihydro-5H-benzo[c]isoxazol-4-one]	5900	94
CC1(C)CC(=O)c2c(noc2Cc2ccc(C(N)=O)cc2)C1 [Cpd 75, 4-(6,6-Dimethyl-4-oxo-4,5,6,7-tetrahydro-benzo[c]isoxazol-3-ylmethyl)-benzamide]	15000	100
CC1(C)CC(=O)c2c(noc2Cc2ccc3c(c2)NC(=O)CO3)C1 [Cpd 35, 6-(6,6-Dimethyl-4-oxo-4,5,6,7-tetrahydro-benzo[c]isoxazol-3-ylmethyl)-4H-benzo[1,4]oxazin-3-one]	5200	160
CC(C)C1CC(=O)c2c(noc2Cc2ccc(C(N)=O)cc2)C1 (centres unmarked) [Cpd 76, 4-(6-Isopropyl-4-oxo-4,5,6,7-tetrahydro-benzo[c]isoxazol-3-ylmethyl)-benzamide]	530	25
NC(=O)c1ccc(Cc2onc3c2C(=O)CC2(CCC2)C3)cc1 [Cpd 77, 4-(-6,6-spiro-cyclobutyl-4-oxo-4,5,6,7-tetrahydro-benzo[c]isoxazol-3-ylmethyl)-benzamide]	130	12
N#Cc1ccc(Cc2onc3c2C(=O)CC(CC2CC2)C3)cc1 (centres unmarked) [Cpd 30, 4-(6-Cyclopropylmethyl-4-oxo-4,5,6,7-tetrahydro-benzo[c]isoxazol-3-ylmethyl)-benzonitrile]	14000	74
CC1(C)Cc2noc(CC3CCOCC3)c2C(=O)O1 [Cpd 92, 6,6-Dimethyl-3-(tetrahydro-pyran-4-ylmethyl)-6,7-dihydro-pyrano[4,3-c] isoxazol-4-one]	69000	340
N#Cc1ccc(Cc2onc3c2C(=O)CC(C2CCOCC2)C3)cc1 (centres unmarked) [Cpd 12, 4-[4-Oxo-6-(tetrahydro-pyran-4-yl)-4,5,6,7-tetrahydro-benzo[c]isoxazol-3-ylmethyl]-benzonitrile]	51000	180
CC1(C)CC(=O)c2c(noc2Cc2ccc(OCCC(N)=O)cc2)C1 [Cpd 81, 3-[4-(6,6-Dimethyl-4-oxo-4,5,6,7-tetrahydro-benzo[c]isoxazol-3-ylmethyl)-phenoxy]-propionamide]	2500	35
CC1(C)CC(=O)c2c(noc2Cc2ccc(OCCC(=O)N3CC[C@@H](O)C3)cc2)C1 [Cpd 83, 3-{4-[3-((R)-3-Hydroxy-pyrrolidin-1-yl)-3-oxo-propoxy]-benzyl}-6,6-dimethyl-6,7-dihydro-5H-benzo[c]isoxazol-4-one]	2700	69
CC1(C)Cc2noc(Cc3ccc(OCCCS(C)(=O)=O)cc3)c2C(=O)O1 [Cpd 90, 3-[4-(3-Methanesulfonyl-propoxy)-benzyl]-6,6-dimethyl-6,7-dihydro-pyrano[4,3-c]isoxazol-4-one]	4600	16
CC1CC(=O)c2c(noc2Cc2ccc(C(N)=O)cc2)C1 (centres unmarked) [Cpd 74, 4-(6-Methyl-4-oxo-4,5,6,7-tetrahydro-benzo[c]isoxazol-3-ylmethyl)-benzamide]	3000	82
CC1(C)CC(=O)c2c(noc2Cc2ccc(C(=O)N3CCC[C@@H](O)C3)cc2)C1 [Cpd 72, 3-[4-((R)-3-Hydroxy-piperidine-1-carbonyl)-benzyl]-6,6-dimethyl-6,7-dihydro-5H-benzo[c]isoxazol-4-one]	5900	180
CC1(C)CC(=O)c2c(noc2Cc2ccc(OCCCC(=O)N3CC[C@@H](O)C3)cc2)C1 [Cpd 84, 3-{4-[4-((R)-3-Hydroxy-pyrrolidin-1-yl)-4-oxo-butoxy]-benzyl}-6,6-dimethyl-6,7-dihydro-5H-benzo[c]isoxazol-4-one]	6900	69
CC(=O)N1CCC(Cc2onc3c2C(=O)CC(C)(C)C3)CC1 [Cpd 17, 3-(1-Acetyl-piperidin-4-ylmethyl)-6,6-dimethyl-6,7-dihydro-5H-benzo[c]isoxazol-4-one]	24000	690
O=C1CC(CC2CC2)Cc2noc(Cc3ccc(C(=O)N4CC[C@@H](O)C4)cc3)c21 (stereo partly drawn) [Cpd 63, 6-Cyclopropylmethyl-3-[4-((R)-3-hydroxy-pyrrolidine-1-carbonyl)-benzyl]-6,7-dihydro-5H-benzo[c]isoxazol-4-one]	4100	110
CC(C)C1CC(=O)c2c(noc2CC2CCN(C(N)=O)CC2)C1 (stereo not drawn) [Cpd 21, 4-(6-Isopropyl-4-oxo-4,5,6,7-tetrahydro-benzo[c]isoxazol-3-ylmethyl)-piperidine-l-carboxylic acid amide]	23000	330
CC1CC(=O)c2c(noc2Cc2ccc(OCCCS(C)(=O)=O)cc2)C1 (centres unmarked) [Cpd 48, 3-[4-(3-Methanesulfonyl-propoxy)-benzyl]-6-methyl-6,7-dihydro-5H-benzo[c]isoxazol-4-one]	670	46
CNC(=O)CCOc1ccc(Cc2onc3c2C(=O)CC(C)(C)C3)cc1 [Cpd 80, 3-[4-(6,6-Dimethyl-4-oxo-4,5,6,7-tetrahydro-benzo[c]isoxazol-3-ylmethyl)-phenoxy]-N-methyl-propionamide]	1800	29
COCCNC(=O)c1ccc(Cc2onc3c2C(=O)CC(C)(C)C3)cc1 [Cpd 58, 4-(6,6-Dimethyl-4-oxo-4,5,6,7-tetrahydro-benzo[c]isoxazol-3-ylmethyl)-N-(2-methoxy-ethyl)-benzamide]	3400	89
CC(=O)N1CCC(Cc2onc3c2C(=O)CC(C(C)C)C3)CC1 (single isomer, unassigned) [Cpd 15A, 3-(1-Acetyl-piperidin-4-ylmethyl)-6-isopropyl-6,7-dihydro-5H-benzo[c]isoxazol-4-one]	2800	22
CS(=O)(=O)CCCOc1ccc(Cc2onc3c2C(=O)CC2(CCC2)C3)cc1 [Cpd 50, 3-[4-(3-Methanesulfonyl-propoxy)-benzyl]-6-6-spirocyclebutyl-6,7-dihydro-5H-benzo [c]isoxazol-4-one]	580	72
C[C@@H](O)CNC(=O)c1ccc(Cc2onc3c2C(=O)CC(C)(C)C3)cc1 [Cpd 73, 4-(6,6-Dimethyl-4-oxo-4,5,6,7-tetrahydro-benzo[c]isoxazol-3-ylmethyl)-N-((R)-2-hydroxy-propyl)-benzamide]	23000	230
CC(C)C1CC(=O)c2c(noc2CC2CCN(C(=O)CO)CC2)C1 (centres unmarked) [Cpd 19, 3-[1-(2-Hydroxy-acetyl)-piperidin-4-ylmethyl]-6-isopropyl-6,7-dihydro-5H-benzo[c]isoxazol-4-one]	9900	200
CC1(C)CC(=O)c2c(noc2Cc2ccc(OCCCS(C)(=O)=O)cc2)C1 [Cpd 27, 3-[4-(3-Methanesulfonyl-propoxy)-benzyl]-6,6-dimethyl-6,7-dihydro-5H-benzo[c]isoxazol-4-one]	3400	59
